Experimental data: ChEMBL document CHEMBL5620405, “A platform for the rapid synthesis of molecular glues (Rapid-Glue) under miniaturized conditions for direct biological screening” (Eur J Med Chem, 2023)
Active and inactive are the calls of the source. The rule behind the calls is not given here.

Target: T1, Protein cereblon/Eukaryotic peptide chain release factor GTP-binding subunit ERF3A (Homo sapiens, UniProt Q96SW2+P15170)
Test: Molecular glue activity at CRBN/GSPT1 in human RS4-11 cells assessed as downregulation of GSPT1 expression at 1 uM measured after 6 hrs by TMT-mass spectrometry
Format: cell-based
Conditions: not given
Target sequence in this assay (P15170 whole entry, looked up): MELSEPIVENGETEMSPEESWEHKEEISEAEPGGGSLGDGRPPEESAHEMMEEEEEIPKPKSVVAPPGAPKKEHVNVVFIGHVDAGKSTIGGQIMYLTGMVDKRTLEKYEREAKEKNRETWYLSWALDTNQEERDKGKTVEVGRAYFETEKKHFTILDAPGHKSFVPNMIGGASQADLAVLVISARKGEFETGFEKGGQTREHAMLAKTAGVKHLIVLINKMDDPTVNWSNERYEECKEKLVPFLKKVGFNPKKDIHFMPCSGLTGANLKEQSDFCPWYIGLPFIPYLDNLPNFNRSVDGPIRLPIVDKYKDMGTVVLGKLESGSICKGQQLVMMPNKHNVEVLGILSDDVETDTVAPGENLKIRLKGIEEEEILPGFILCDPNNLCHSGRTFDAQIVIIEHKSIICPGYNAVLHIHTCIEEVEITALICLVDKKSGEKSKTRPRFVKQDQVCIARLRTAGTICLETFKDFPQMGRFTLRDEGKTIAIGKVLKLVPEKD
Target sequence in this assay (Q96SW2 whole entry, looked up): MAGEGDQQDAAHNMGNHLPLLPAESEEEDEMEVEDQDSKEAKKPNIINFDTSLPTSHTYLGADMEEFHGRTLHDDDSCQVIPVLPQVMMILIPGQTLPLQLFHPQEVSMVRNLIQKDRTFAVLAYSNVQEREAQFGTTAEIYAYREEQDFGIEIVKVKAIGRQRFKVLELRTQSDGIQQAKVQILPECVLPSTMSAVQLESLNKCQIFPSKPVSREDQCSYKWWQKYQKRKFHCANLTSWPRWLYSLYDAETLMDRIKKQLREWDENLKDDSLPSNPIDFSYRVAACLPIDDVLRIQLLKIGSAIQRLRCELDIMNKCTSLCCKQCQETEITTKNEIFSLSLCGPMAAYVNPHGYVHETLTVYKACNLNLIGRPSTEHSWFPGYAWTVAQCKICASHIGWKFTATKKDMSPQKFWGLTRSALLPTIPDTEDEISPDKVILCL

| Activity | SMILES |
| --- | --- |
| Active | O=C(COc1ccccc1-c1cccc2c1CN(C1CCC(=O)NC1=O)C2=O)N/N=C/c1nn(Cc2ccccc2)c2ccccc12 (stereo not drawn) |
| Active | O=C(COc1ccccc1-c1cccc2c1CN(C1CCC(=O)NC1=O)C2=O)N/N=C/c1cn(S(=O)(=O)c2ccccc2)c2ccccc12 (stereo not drawn) |

Target: T1, Protein cereblon/Eukaryotic peptide chain release factor GTP-binding subunit ERF3A
Test: Molecular glue activity at CRBN/GSPT1 in human RS4-11 cells assessed as induction of GSPT1 degradation measured after 12 hrs by western blot analysis
Format: cell-based
Conditions: dose 0.0001-10 µM
Target sequence in this assay (P15170 whole entry, looked up): as the sequence (P15170 whole entry, looked up) above
Target sequence in this assay (Q96SW2 whole entry, looked up): as the sequence (Q96SW2 whole entry, looked up) above

| Activity | SMILES |
| --- | --- |
| Dose-Dependent Effect | O=C(COc1ccccc1-c1cccc2c1CN(C1CCC(=O)NC1=O)C2=O)N/N=C/c1nn(Cc2ccccc2)c2ccccc12 (stereo not drawn) |
| Dose-Dependent Effect | O=C(COc1ccccc1-c1cccc2c1CN(C1CCC(=O)NC1=O)C2=O)N/N=C/c1cn(S(=O)(=O)c2ccccc2)c2ccccc12 (stereo not drawn) |

Target: T1, Protein cereblon/Eukaryotic peptide chain release factor GTP-binding subunit ERF3A
Test: Molecular glue activity at CRBN/GSPT1 in human RS4-11 cells assessed as induction of GSPT1 degradation at 1 uM by western blot analysis
Format: cell-based
Conditions: time 0.5-24 hrs, TDE = time-dependent effect
Target sequence in this assay (P15170 whole entry, looked up): as the sequence (P15170 whole entry, looked up) above
Target sequence in this assay (Q96SW2 whole entry, looked up): as the sequence (Q96SW2 whole entry, looked up) above

| Activity | SMILES |
| --- | --- |
| Tde | O=C(COc1ccccc1-c1cccc2c1CN(C1CCC(=O)NC1=O)C2=O)N/N=C/c1nn(Cc2ccccc2)c2ccccc12 (stereo not drawn) |
| Tde | O=C(COc1ccccc1-c1cccc2c1CN(C1CCC(=O)NC1=O)C2=O)N/N=C/c1cn(S(=O)(=O)c2ccccc2)c2ccccc12 (stereo not drawn) |

Target: T1, Protein cereblon/Eukaryotic peptide chain release factor GTP-binding subunit ERF3A
Test: Molecular glue activity at CRBN/GSPT1 in human RS4-11 cells assessed as induction of GSPT1 degradation at 1 uM measured after 4 hrs by western blot analysis
Format: cell-based
Conditions: not given
Target sequence in this assay (P15170 whole entry, looked up): as the sequence (P15170 whole entry, looked up) above
Target sequence in this assay (Q96SW2 whole entry, looked up): as the sequence (Q96SW2 whole entry, looked up) above

| Activity | SMILES |
| --- | --- |
| 100% | O=C(COc1ccccc1-c1cccc2c1CN(C1CCC(=O)NC1=O)C2=O)N/N=C/c1nn(Cc2ccccc2)c2ccccc12 (stereo not drawn) |
| 100% | O=C(COc1ccccc1-c1cccc2c1CN(C1CCC(=O)NC1=O)C2=O)N/N=C/c1cn(S(=O)(=O)c2ccccc2)c2ccccc12 (stereo not drawn) |

System: RS4-11
Test: Antiproliferative activity against human RS4-11 cells assessed as reduction in cell viability measured after 72 hrs by Alamar blue assay
Format: functional, cell-based
Conditions: RS4-11, 72 h

| IC50 | SMILES |
| --- | --- |
| > 1000 nM | CN1C(=O)CCC(N2Cc3c(cccc3-c3ccccc3OCC(=O)N/N=C/c3nn(Cc4ccccc4)c4ccccc34)C2=O)C1=O (stereo not drawn) |
| > 1000 nM | CN1CCN(c2ncc(/C=N/NC(=O)COc3ccccc3-c3cccc4c3CN(C3CCC(=O)N(C)C3=O)C4=O)s2)CC1 (stereo not drawn) |
| 2 nM | O=C(COc1ccccc1-c1cccc2c1CN(C1CCC(=O)NC1=O)C2=O)N/N=C/c1nn(Cc2ccccc2)c2ccccc12 (stereo not drawn) |
| 7 nM | O=C(COc1ccccc1-c1cccc2c1CN(C1CCC(=O)NC1=O)C2=O)N/N=C/c1cn(S(=O)(=O)c2ccccc2)c2ccccc12 (stereo not drawn) |

Target: T1, Protein cereblon/Eukaryotic peptide chain release factor GTP-binding subunit ERF3A
Test: Molecular glue activity at CRBN/GSPT1 in human RS4-11 cells assessed as induction of GSPT1 degradation by measuring reduction in GSPT1 level measured for 6 hrs by western blot analysis
Format: cell-based
Parameters: scale not given: the % may be the effect or the level left
Conditions: not given
Target sequence in this assay (P15170 whole entry, looked up): as the sequence (P15170 whole entry, looked up) above
Target sequence in this assay (Q96SW2 whole entry, looked up): as the sequence (Q96SW2 whole entry, looked up) above

| Activity | SMILES |
| --- | --- |
| > 50% | O=C(COc1ccccc1-c1cccc2c1CN(C1CCC(=O)NC1=O)C2=O)N/N=C/c1nn(Cc2ccccc2)c2ccccc12 (stereo not drawn) |
| > 50% | O=C(COc1ccccc1-c1cccc2c1CN(C1CCC(=O)NC1=O)C2=O)N/N=C/c1cn(S(=O)(=O)c2ccccc2)c2ccccc12 (stereo not drawn) |

System: RS4-11
Test: Antiproliferative activity against human RS4-11 cells assessed as cell viability at 0.1 uM measured after 72 hrs by Alamar blue assay
Format: functional
Conditions: read-out: Activity

| SMILES | viability at 0.1 µM |
| --- | --- |
| O=C(COc1ccccc1-c1cccc2c1CN(C1CCC(=O)NC1=O)C2=O)N/N=C/c1nn(Cc2ccccc2)c2ccccc12 (stereo not drawn) | 86% |
| O=C(COc1ccccc1-c1cccc2c1CN(C1CCC(=O)NC1=O)C2=O)N/N=C/c1cn(S(=O)(=O)c2ccccc2)c2ccccc12 (stereo not drawn) | 52% |

System: MOLT-4
Test: Antiproliferative activity against human MOLT-4 cells assessed as cell viability at 1 uM measured after 72 hrs by Alamar blue assay
Format: functional
Conditions: read-out: Activity

| SMILES | viability at 1 µM |
| --- | --- |
| CN1C(=O)CCC(N2Cc3c(cccc3-c3ccccc3OCC(=O)N/N=C/c3nn(Cc4ccccc4)c4ccccc34)C2=O)C1=O (stereo not drawn) | > 100% |
| CN1CCN(c2ncc(/C=N/NC(=O)COc3ccccc3-c3cccc4c3CN(C3CCC(=O)N(C)C3=O)C4=O)s2)CC1 (stereo not drawn) | > 100% |
| O=C(COc1ccccc1-c1cccc2c1CN(C1CCC(=O)NC1=O)C2=O)N/N=C/c1nn(Cc2ccccc2)c2ccccc12 (stereo not drawn) | 7% |
| O=C(COc1ccccc1-c1cccc2c1CN(C1CCC(=O)NC1=O)C2=O)N/N=C/c1cn(S(=O)(=O)c2ccccc2)c2ccccc12 (stereo not drawn) | 43% |

System: RS4-11
Test: Antiproliferative activity against human RS4-11 cells assessed as cell viability at 1 uM measured after 72 hrs by Alamar blue assay
Format: functional
Conditions: read-out: Activity

| SMILES | viability at 1 µM |
| --- | --- |
| CN1C(=O)CCC(N2Cc3c(cccc3-c3ccccc3OCC(=O)N/N=C/c3nn(Cc4ccccc4)c4ccccc34)C2=O)C1=O (stereo not drawn) | 98% |
| CN1CCN(c2ncc(/C=N/NC(=O)COc3ccccc3-c3cccc4c3CN(C3CCC(=O)N(C)C3=O)C4=O)s2)CC1 (stereo not drawn) | 96% |
| O=C(COc1ccccc1-c1cccc2c1CN(C1CCC(=O)NC1=O)C2=O)N/N=C/c1nn(Cc2ccccc2)c2ccccc12 (stereo not drawn) | 11% |
| O=C(COc1ccccc1-c1cccc2c1CN(C1CCC(=O)NC1=O)C2=O)N/N=C/c1cn(S(=O)(=O)c2ccccc2)c2ccccc12 (stereo not drawn) | 15% |

System: MOLT-4
Test: Antiproliferative activity against human MOLT-4 cells assessed as reduction in cell viability measured after 72 hrs by Alamar blue assay
Format: functional, cell-based
Conditions: MOLT-4, 72 h

| IC50 | SMILES |
| --- | --- |
| > 1000 nM | CN1C(=O)CCC(N2Cc3c(cccc3-c3ccccc3OCC(=O)N/N=C/c3nn(Cc4ccccc4)c4ccccc34)C2=O)C1=O (stereo not drawn) |
| > 10000 nM | CN1CCN(c2ncc(/C=N/NC(=O)COc3ccccc3-c3cccc4c3CN(C3CCC(=O)N(C)C3=O)C4=O)s2)CC1 (stereo not drawn) |
| 260 nM | O=C(COc1ccccc1-c1cccc2c1CN(C1CCC(=O)NC1=O)C2=O)N/N=C/c1nn(Cc2ccccc2)c2ccccc12 (stereo not drawn) |
| 175 nM | O=C(COc1ccccc1-c1cccc2c1CN(C1CCC(=O)NC1=O)C2=O)N/N=C/c1cn(S(=O)(=O)c2ccccc2)c2ccccc12 (stereo not drawn) |

System: RS4-11
Test: Antiproliferative activity against human RS4-11 cells assessed as cell viability at 0.5 uM measured after 72 hrs by Alamar blue assay
Format: functional
Conditions: read-out: Activity

| SMILES | viability at 0.5 µM |
| --- | --- |
| O=C(COc1ccccc1-c1cccc2c1CN(C1CCC(=O)NC1=O)C2=O)N/N=C/c1nn(Cc2ccccc2)c2ccccc12 (stereo not drawn) | 6% |
| O=C(COc1ccccc1-c1cccc2c1CN(C1CCC(=O)NC1=O)C2=O)N/N=C/c1cn(S(=O)(=O)c2ccccc2)c2ccccc12 (stereo not drawn) | 5% |

Target: T1, Protein cereblon/Eukaryotic peptide chain release factor GTP-binding subunit ERF3A
Test: Molecular glue activity at CRBN/GSPT1 in human RS4-11 cells assessed as induction of GSPT1 degradation by western blot analysis
Format: cell-based
Conditions: not given
Target sequence in this assay (Q96SW2 whole entry): as the sequence (Q96SW2 whole entry, looked up) above
Target sequence in this assay (P15170 whole entry): as the sequence (P15170 whole entry, looked up) above

| DC50 | SMILES |
| --- | --- |
| 50 nM | O=C(COc1ccccc1-c1cccc2c1CN(C1CCC(=O)NC1=O)C2=O)N/N=C/c1nn(Cc2ccccc2)c2ccccc12 (stereo not drawn) |
| 154 nM | O=C(COc1ccccc1-c1cccc2c1CN(C1CCC(=O)NC1=O)C2=O)N/N=C/c1cn(S(=O)(=O)c2ccccc2)c2ccccc12 (stereo not drawn) |

System: MM1.S
Test: Antiproliferative activity against human MM1.S cells assessed as reduction in cell viability measured after 72 hrs by Alamar blue assay
Format: functional, cell-based
Conditions: not given

| IC50 | SMILES |
| --- | --- |
| > 1000 nM | CN1C(=O)CCC(N2Cc3c(cccc3-c3ccccc3OCC(=O)N/N=C/c3nn(Cc4ccccc4)c4ccccc34)C2=O)C1=O (stereo not drawn) |
| > 10000 nM | CN1CCN(c2ncc(/C=N/NC(=O)COc3ccccc3-c3cccc4c3CN(C3CCC(=O)N(C)C3=O)C4=O)s2)CC1 (stereo not drawn) |
| 370 nM | O=C(COc1ccccc1-c1cccc2c1CN(C1CCC(=O)NC1=O)C2=O)N/N=C/c1nn(Cc2ccccc2)c2ccccc12 (stereo not drawn) |
| 131 nM | O=C(COc1ccccc1-c1cccc2c1CN(C1CCC(=O)NC1=O)C2=O)N/N=C/c1cn(S(=O)(=O)c2ccccc2)c2ccccc12 (stereo not drawn) |

Target: T1, Protein cereblon/Eukaryotic peptide chain release factor GTP-binding subunit ERF3A
Test: Molecular glue activity at CRBN/GSPT1 in human RS4-11 cells assessed as induction of GSPT1 degradation at 0.1 uM measured after 24 hrs by western blot analysis
Format: cell-based
Conditions: not given
Target sequence in this assay (P15170 whole entry, looked up): as above
Target sequence in this assay (Q96SW2 whole entry, looked up): as the sequence (Q96SW2 whole entry, looked up) above

| Activity | SMILES |
| --- | --- |
| 100% | O=C(COc1ccccc1-c1cccc2c1CN(C1CCC(=O)NC1=O)C2=O)N/N=C/c1nn(Cc2ccccc2)c2ccccc12 (stereo not drawn) |
| 100% | O=C(COc1ccccc1-c1cccc2c1CN(C1CCC(=O)NC1=O)C2=O)N/N=C/c1cn(S(=O)(=O)c2ccccc2)c2ccccc12 (stereo not drawn) |
